Source: patent publication US20040198605A1, “Growth promoter for gramineous plants” (priority 2001, published 2004)
Several values for one entry are separate records, joined by “and”; a condition that tells them apart may be missing. Equal entries are not always repeated.

Tests used:
[1] = tested on: Lawn sods (bent grass; breed name: BENCROSS); experiment: Soil culture of lawns, leaf surface sprinkling test; assay type: in vivo; conditions: for Weight of Cut Stem/Leaf after Dried (mean of three pots) / Weight of Cut Stem/Leaf after Dried (individual pots): cut on 77th day; for Weight of Cut Stem/Leaf after Dried (individual pots): three pots
Experimental: Lawn sods having a diameter of 4 cm and a thickness of 3 cm (bent grass; breed name: BENCROSS) were each planted in 1/50 m^2 Wagner pots, and a leaf surface sprinkling test was carried out on a group of three pots. To the soil of each pot, a chemical fertilizer (12-8-10) was add-mixed as the initial fertilizer in an amount of 1 g/pot. Serine was diluted with water to the concentrations shown in the following Table 1 and sprinkled by means of a sprinkler on the 10th day and 24th day after planting. On the 77th day after planting, the plant parts exposed on the ground were cut, and the weight thereof after dried was measured.

[2] = tested on: Seedlings of lawns (western lawns; Evergreen Lawn Grass); experiment: Hydroponics (water culture) of lawns, serine sprinkled over the surfaces of leaves; assay type: in vivo; conditions: 26th day
Experimental: Seedlings of lawns (western lawns; Evergreen Lawn Grass) were raised and were divided into two groups, A and B, each consisting of 60 seedlings so as to carry out water culture. A given amount of a liquid fertilizer was added to a water culture solution, to which inosine was then added to a concentration of 0.2 ppm. The testing period started on Oct. 6, 1999 and ended on Nov. 1, 1999 (26 days). Group A was set as a control area. As for Group B, 5 ml of a solution so prepared as to have a serine concentration of 20 ppm was sprinkled over the surfaces of leaves every day over a period of 15 days. On the 26th day, the weight of 5 average grown seedlings selected from each group was measured.

[3] = 5 ml of serine 20 ppm sprinkled on leaves daily for 15 days, inosine 0.2 ppm in water culture solution, 5 average seedlings

## N[C@@H](CO)C(=O)O [Serine, serine]
[1]; serine 18.3 ppm sprinkled on 10th and 24th day
  Weight of Cut Stem/Leaf after Dried (mean of three pots): 2.27 ± 0.12 g/pot
[1]; serine 18.3 ppm sprinkled on leaf surfaces on 10th and 24th day after planting
  Weight of Cut Stem/Leaf after Dried (individual pots): 2.17 g/pot and 2.43 g/pot and 2.20 g/pot
[1]; serine 18.3 ppm, 77th day, * statistically significant difference
  Percentage (dried weight, Control = 100): 185*
[1]; serine 183 ppm sprinkled on 10th and 24th day
  Weight of Cut Stem/Leaf after Dried (mean of three pots): 1.27 ± 0.16 g/pot
[1]; serine 183 ppm sprinkled on leaf surfaces on 10th and 24th day after planting
  Weight of Cut Stem/Leaf after Dried (individual pots): 1.26 g/pot and 1.47 g/pot and 1.08 g/pot
[1]; serine 183 ppm, 77th day
  Percentage (dried weight, Control = 100): 104
[1]; serine-treated areas, particularly 18.3 ppm-treated areas, 77th day
  Growth (in words): good growth was observed
[2]; [3]
  Average Leaf Length: 22 cm
  Root Length: 4.1 cm
[2]; serine-treated area
  Root length, leaf length and total weight in the raw state (in words): good
[2]; total of above-ground portions and roots of 5 undried lawn plants, serine 20 ppm on leaves daily for 15 days, inosine 0.2 ppm in water culture
  Total Weight in Raw State: 0.35 g
